Test results published in PubChem BioAssay (NCI).
Values joined by “and” are separate entries in the source; they are usually repeats but may differ in a detail not shown here. Equal values may be shown once.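 Following 48 hours of exposure in 96-well plates, responses at five concentrations were used to interpolate endpoints linearly. GI50 = concentration required for 50% inhibition of growth. TGI is the concentration that stops growth completely.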

How the values were obtained:
Test in all cases: DTP human tumour cell line panel, 48 h
MDA-MB-435 = tested on: MDA-MB-435
HOP-92 NSCLC = tested on: HOP-92 NSCLC
KM12 colon = tested on: KM12 colon
OVCAR-3 ovarian = tested on: OVCAR-3 ovarian
NCI-H226 lung = tested on: NCI-H226 lung
SF-295 CNS = tested on: SF-295 CNS
CAKI-1 renal = tested on: CAKI-1 renal
K-562 leukemia = tested on: K-562 leukemia
HCC-2998 colon = tested on: HCC-2998 colon
U251 CNS = tested on: U251 CNS

SMILES	TGI (MDA-MB-435)	TGI (HOP-92 NSCLC)	TGI (KM12 colon)	TGI (OVCAR-3 ovarian)	TGI (NCI-H226 lung)	TGI (SF-295 CNS)	TGI (CAKI-1 renal)	TGI (K-562 leukemia)	TGI (HCC-2998 colon)	TGI (U251 CNS)	GI50 (KM12 colon)	GI50 (K-562 leukemia)	GI50 (HCC-2998 colon)	GI50 (U251 CNS)	GI50 (MDA-MB-435)	GI50 (OVCAR-3 ovarian)	GI50 (SF-295 CNS)
CCN1CCC(CNC(=O)c2ccc(N)cc2)N1CC (centres undefined)	> 100 µM	> 100 µM	> 100 µM	> 100 µM	> 100 µM	> 100 µM	> 100 µM	> 100 µM	> 100 µM	> 100 µM	–	–	–	–	–	–	–
CC(C)C1=CC(=O)[C@@](C)(C2[C@H](O)C[C@@]3(C)[C@@H]4CC=C5[C@@H](CC[C@@H](OC6OCC(O)C(O)C6OC6OC(C)C(O)C(O)C6O)C5(C)C)[C@]4(C)C(=O)C[C@]23C)O1 (some centres undefined)	> 100 µM	> 100 µM	> 100 µM	> 100 µM	> 100 µM	> 100 µM	> 100 µM	> 100 µM	> 100 µM	> 100 µM	–	–	–	–	–	–	–
O=c1[nH]c(=O)n(COCc2ccccc2)cc1Nc1ccc(Br)cc1	> 100 µM	> 100 µM	> 100 µM	> 100 µM	> 100 µM	> 100 µM	> 100 µM	> 100 µM	> 100 µM	> 100 µM	–	–	–	–	–	–	–
CN(C)c1ccc(/C=C/c2sc3ccccc3[n+]2C)cc1	5.64 µM and 3.94 µM	5.34 µM and 8.69 µM	> 25.2 µM and 5.26 µM	3.82 µM and 2.86 µM	15.4 µM and 7.31 µM	24.8 µM and 23.1 µM	13.2 µM and 11.6 µM	4.26 µM and 26.2 µM	25.7 µM and 17.3 µM	13.8 µM and > 100 µM	0.621 µM	0.515 µM and 0.856 µM	11.2 µM and 1.48 µM	0.479 µM and 0.121 µM	–	–	–
COc1ccccc1C1(c2c(OC)c(=O)c2=O)SCCCS1	> 100 µM	> 100 µM	> 100 µM	> 100 µM	> 100 µM	> 100 µM	> 100 µM	> 100 µM	> 100 µM	> 100 µM	–	–	–	–	–	–	–
Nc1nc(Cl)c(Cl)c(NCC2(O)CCC2)n1	> 100 µM	> 100 µM	> 100 µM	> 100 µM	> 100 µM	> 100 µM	29.6 µM	> 100 µM	> 100 µM	> 100 µM	–	–	–	–	–	–	–
CC(=O)OCC1OC(n2c(S)c(C#N)c(-c3ccccc3)c(C#N)c2=O)C(OC(C)=O)C(OC(C)=O)C1OC(C)=O (centres undefined)	> 100 µM and 34.6 µM	59.9 µM and 99.2 µM	> 100 µM and 52 µM	> 100 µM and 36.9 µM	> 100 µM	> 100 µM	> 100 µM	> 100 µM	> 100 µM and 32.9 µM	> 100 µM	> 100 µM and 21.8 µM	–	> 100 µM and 18 µM	–	> 100 µM and 17.2 µM	> 100 µM and 19.5 µM	29.4 µM and > 100 µM
